Data on two compounds can be found in publication PMC10828691 (Heliyon, 2024).

Read-outs that look alike come from different tables or passages of the source.

In assay [1] the target is human placental alkaline phosphatase (hPAP) (Homo sapiens, UniProt P05187). The experiment in a line: Alkaline phosphatase inhibition assay. Type of assay: biochemical.
In assay [2] the test system is tissue nonspecific alkaline phosphatase (TNAP). Particulars: relative expression of control without drugs = 1.0.

Sequence of human placental alkaline phosphatase (hPAP) (P05187 23-535): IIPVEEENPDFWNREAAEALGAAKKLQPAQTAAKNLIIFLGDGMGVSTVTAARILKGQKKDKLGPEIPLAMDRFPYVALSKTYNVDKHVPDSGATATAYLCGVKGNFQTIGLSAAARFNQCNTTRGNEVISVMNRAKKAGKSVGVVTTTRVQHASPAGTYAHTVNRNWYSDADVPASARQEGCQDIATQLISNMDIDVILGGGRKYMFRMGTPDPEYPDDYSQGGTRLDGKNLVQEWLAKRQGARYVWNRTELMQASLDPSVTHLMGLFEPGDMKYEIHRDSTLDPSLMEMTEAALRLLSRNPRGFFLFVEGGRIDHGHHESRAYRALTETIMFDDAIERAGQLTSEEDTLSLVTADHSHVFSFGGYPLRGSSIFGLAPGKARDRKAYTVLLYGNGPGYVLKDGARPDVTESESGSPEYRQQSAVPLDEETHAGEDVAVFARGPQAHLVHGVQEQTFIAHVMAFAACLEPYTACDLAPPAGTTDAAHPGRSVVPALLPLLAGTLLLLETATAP

`CC(C)(O)c1ccccc1CC[C@@H](SCC1(CC(=O)O)CC1)c1cccc(/C=C/c2ccc3ccc(Cl)cc3n2)c1` [Montelukast, (R,E)-2-(1-(((1-(3-(2-(7-chloroquinolin-2-yl)vinyl)phenyl)-3-(2-(2-hydroxypropan-2-yl)phenyl)propyl)thio)methyl)cyclopropyl) acetic acid]: inhibition in assay [1] was half-maximal at 17.5 ± 0.19 µM (IC50). Besides, the “TNAP Down-regulation” value in assay [2] (MCF-7, 5 μM) was determined as 0.27 fold.

For the compound `c1ccc([C@H]2CN3CCSC3=N2)cc1` [Levamisole], the “TNAP Down-regulation” value in assay [2] (MCF-7, 10 μM) is given as 0.26 fold.
